Assay results published in ChEMBL document CHEMBL5385892, “Advances in the development of phosphodiesterase-4 inhibitors” (Eur J Med Chem, 2023).

Key:
[1] = biological target: T1, Phosphodiesterase isozyme 4 (Homo sapiens, UniProt Q86V67); experiment: Inhibition of PDE4 (unknown origin)
T1 sequence (Q86V67 whole entry): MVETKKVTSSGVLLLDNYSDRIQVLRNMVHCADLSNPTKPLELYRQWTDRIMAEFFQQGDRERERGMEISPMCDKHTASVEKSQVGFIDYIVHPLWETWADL

Phosphodiesterase 3 = Phosphodiesterase 3 (Homo sapiens, UniProt Q14432+Q13370); experiment: Inhibition of PDE3 (unknown origin); type: protein assay

IC50 [1] [nM] | IC50 (Phosphodiesterase 3) [nM] | SMILES
2.8 |  | CNc1nc(-c2cccc(NC(=O)c3ccc(C(=O)OC)cc3)c2)c2cc(OC)c(OC)cc2n1 [LOTAMILAST]
26 |  | CCOc1cc(C(CS(C)(=O)=O)N2C(=O)c3csc(NC(C)=O)c3C2=O)ccc1OC (stereo not given)
1480 | 0.4 | O=C(Cc1c(Cl)c[n+]([O-])cc1Cl)c1ccc(OC(F)F)c2c1OC1(CCS(=O)(=O)CC1)O2 [ORISMILAST]
0.9 |  | COc1ccc(C2=NN(CCCCCc3ccccc3)C(=O)CC2)cc1OC
